Laboratory results from US10618918B2, “Substituted boronic acids as antimicrobials” (priority 2015, dated 2020).

Assays:
[1] = test system: AB1054 OXA-23; assay: Meropenem potentiation (MPC@8), strain AB1054 OXA-23; assay type: cell-based, Acinetobacter baumannii; conditions: minimum BLI concentration inhibiting growth with meropenem 8 μg/mL; tested up to 20 μg/mL
[2] = test system: KP1004 KPC-2; assay: Aztreonam potentiation (MPC@4), strain KP1004 KPC-2; conditions: minimum BLI concentration inhibiting growth with aztreonam 4 μg/mL; tested up to 40 μg/mL
[3] = test system: ec308 SHV-5; assay: Aztreonam potentiation (MPC@4), strain ec308 SHV-5; conditions: minimum BLI concentration inhibiting growth with aztreonam 4 μg/mL; tested up to 40 μg/mL
[4] = test system: KP1005 CTX-M-14; assay: Tigemonam potentiation (MPC@4), strain KP1005 CTX-M-14; conditions: minimum BLI concentration inhibiting growth with tigemonam 4 μg/mL; tested up to 40 μg/mL
[5] = test system: AB1053 OXA-72; assay: Meropenem potentiation (MPC@8), strain AB1053 OXA-72; assay type: cell-based, Acinetobacter baumannii; conditions: minimum BLI concentration inhibiting growth with meropenem 8 μg/mL; tested up to 20 μg/mL
[6] = test system: KP1004 KPC-2; assay: Biapenem potentiation (MPC@1), strain KP1004 KPC-2; assay type: cell-based; conditions: minimum BLI concentration inhibiting growth with biapenem 1 μg/mL; tested up to 40 μg/mL
Experimental: (§1) Biapenem was present in the test medium at 1 μg/mL. […] Table 3 summarizes the BLI potency of biapenem potentiation (MPC@1) for two strains overexpressing class A (KPC) and class D (OXA-48) carbapenemases. Biapenem MIC for each strain is also shown.

[7] = test system: ECL1002; assay: Aztreonam potentiation (MPC@4), strain ECL1002; conditions: minimum BLI concentration inhibiting growth with aztreonam 4 μg/mL; tested up to 40 μg/mL
[8] = target: purified class A, C and D enzymes (β-lactamases) (Klebsiella pneumoniae, UniProt Q6XEC0); assay: biochemical; assay type: biochemical; conditions: purified OXA-48; nitrocefin (NCF) as reporter substrate
[9] = target: purified class A, C and D enzymes (β-lactamases) (Escherichia coli, UniProt Q9L5C7); assay: biochemical; assay type: biochemical; conditions: purified CTX-M-14; nitrocefin (NCF) as reporter substrate
Chain of purified class A, C and D enzymes (β-lactamases) (Escherichia coli, UniProt Q9L5C7) (Q9L5C7 entry or part of it): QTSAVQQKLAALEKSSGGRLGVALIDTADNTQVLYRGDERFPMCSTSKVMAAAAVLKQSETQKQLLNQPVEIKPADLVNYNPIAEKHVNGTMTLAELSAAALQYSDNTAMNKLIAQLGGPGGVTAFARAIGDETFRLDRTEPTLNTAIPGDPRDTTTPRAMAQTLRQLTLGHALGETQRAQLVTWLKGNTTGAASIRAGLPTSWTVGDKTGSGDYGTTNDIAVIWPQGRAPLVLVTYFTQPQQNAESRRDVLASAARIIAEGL

[10] = target: purified class A, C and D enzymes (β-lactamases) (Klebsiella pneumoniae, UniProt Q9F663); assay: biochemical; assay type: biochemical; conditions: purified KPC-2; nitrocefin (NCF) as reporter substrate
[11] = target: T1, purified class A, C and D enzymes (β-lactamases) (Pseudomonas aeruginosa, UniProt P24735); assay: biochemical; assay type: biochemical
T1 construct: rows headed: Ki (Pa-AmpC, NCF), uM; other: purified Pa-AmpC; nitrocefin (NCF) as reporter substrate
T1 sequence (P24735 whole entry): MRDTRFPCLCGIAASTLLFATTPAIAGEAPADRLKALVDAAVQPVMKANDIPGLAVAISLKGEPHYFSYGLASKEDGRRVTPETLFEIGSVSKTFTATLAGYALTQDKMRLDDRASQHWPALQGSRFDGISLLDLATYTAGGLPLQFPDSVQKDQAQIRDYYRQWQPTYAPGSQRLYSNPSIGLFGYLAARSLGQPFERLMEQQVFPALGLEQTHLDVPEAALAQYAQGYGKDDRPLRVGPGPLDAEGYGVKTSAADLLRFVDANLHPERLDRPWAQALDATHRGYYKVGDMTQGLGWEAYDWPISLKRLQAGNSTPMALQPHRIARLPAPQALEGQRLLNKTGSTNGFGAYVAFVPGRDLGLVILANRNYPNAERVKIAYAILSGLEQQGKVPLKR

[12] = target: purified class A, C and D enzymes (β-lactamases) (Enterobacter cloacae, UniProt P05364); assay: biochemical; assay type: biochemical
Chain of purified class A, C and D enzymes (β-lactamases) (Enterobacter cloacae, UniProt P05364) (P05364 21-381): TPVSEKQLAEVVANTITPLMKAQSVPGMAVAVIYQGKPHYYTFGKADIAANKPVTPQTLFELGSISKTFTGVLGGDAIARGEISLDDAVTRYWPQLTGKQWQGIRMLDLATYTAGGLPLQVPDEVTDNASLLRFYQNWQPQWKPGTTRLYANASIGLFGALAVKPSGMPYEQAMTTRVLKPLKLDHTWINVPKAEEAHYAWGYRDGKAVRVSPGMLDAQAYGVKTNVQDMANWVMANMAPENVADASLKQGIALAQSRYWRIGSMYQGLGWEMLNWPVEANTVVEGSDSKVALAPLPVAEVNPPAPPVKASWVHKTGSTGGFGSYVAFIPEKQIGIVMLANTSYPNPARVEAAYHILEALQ

[13] = target: T2, purified class A, C and D enzymes (β-lactamases) (Acinetobacter baumannii, UniProt Q9L4P2); assay: biochemical; assay type: biochemical; conditions: purified OXA-23; nitrocefin (NCF) as reporter substrate
T2 construct: rows headed: Ki (OXA-23, NCF), uM; other: purified OXA-23; nitrocefin (NCF) as reporter substrate
T2 sequence (Q9L4P2 whole entry): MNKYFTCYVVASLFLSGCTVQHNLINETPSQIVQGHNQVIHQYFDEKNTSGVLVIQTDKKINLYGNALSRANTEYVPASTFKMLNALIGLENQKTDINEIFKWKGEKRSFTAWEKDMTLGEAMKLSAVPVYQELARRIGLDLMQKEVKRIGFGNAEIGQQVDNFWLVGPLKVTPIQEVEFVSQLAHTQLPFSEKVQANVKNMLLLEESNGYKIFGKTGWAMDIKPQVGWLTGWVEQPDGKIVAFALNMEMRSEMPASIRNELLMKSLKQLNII

[14] = test system: EC1010 CMY-6; assay: Aztreonam potentiation (MPC@4), strain EC1010 CMY-6; conditions: minimum BLI concentration inhibiting growth with aztreonam 4 μg/mL; tested up to 40 μg/mL
[15] = test system: KP1009 CTX-M-15; assay: Aztreonam potentiation (MPC@4), strain KP1009 CTX-M-15; conditions: minimum BLI concentration inhibiting growth with aztreonam 4 μg/mL; tested up to 40 μg/mL
[16] = test system: KP1010 SHV-12; assay: Aztreonam potentiation (MPC@4), strain KP1010 SHV-12; conditions: minimum BLI concentration inhibiting growth with aztreonam 4 μg/mL; tested up to 40 μg/mL
[17] = test system: KP1086 OXA-48; assay: Biapenem potentiation (MPC@1), strain KP1086 OXA-48; assay type: cell-based; conditions: minimum BLI concentration inhibiting growth with biapenem 1 μg/mL; tested up to 40 μg/mL
Experimental: as §1

[18] = test system: ec302 TEM-10; assay: Aztreonam potentiation (MPC@4), strain ec302 TEM-10; conditions: minimum BLI concentration inhibiting growth with aztreonam 4 μg/mL; tested up to 40 μg/mL

SMILES | MPM MPC8 AB1054 OXA-23 [1] | AZT MPC4 KPC-2 KP1004 [2] | AZT MPC4 SHV-5 ec308 [3] | TIG MPC4 CTX-M-14 KP1005 [4] | MPM MPC8 AB1053 OXA-72 [5] | BPM MPC1 KP1004 KPC-2 [6] | AZT MPC4 ECL1002 [7] | Ki (OXA-48, NCF), uM [8] | Ki (CTX-M-14, NCF), uM [9] | Ki (KPC-2, NCF), uM [10] | Ki [11] [nM] | Ki (P99, NCF), uM [12] | Ki [13] [nM] | AZT MPC4 CMY-6 EC1010 [14] | AZT MPC4 CTX-M-15 KP1009 [15] | AZT MPC4 SHV-12 KP1010 [16] | BPM MPC1 OXA-48 KP1086 [17] | AZT MPC4 TEM-10 ec302 [18]
[2H]C1([2H])Cc2ccc(OC)c(C(=O)[O-])c2O[B-]1(O)O.[Na+].[Na+] [Compound 60, Disodium; 3,3-dideuterio-4,4-dihydroxy-8-methoxy-5-oxa-4-boranuidabicyclo[4.4.0]deca-1(10),6,8-triene-7-carboxylate] | X (X = MPC@1 ≤ 5 μg/mL) | X (X = MPC@4 ≤ 5 μg/mL) | X (X = MPC@4 ≤ 5 μg/mL) | X (X = MPC@4 ≤ 5 μg/mL) | X (X = MPC@1 ≤ 5 μg/mL) | X (X = MPC@1 ≤ 5 μg/mL) | X (X = MPC@4 ≤ 5 μg/mL) | X (X = Ki ≤ 0.1 μM) | X (X = Ki ≤ 0.1 μM) | X (X = Ki ≤ 0.1 μM) | < 100 | X (key: X = Ki ≤ 0.1 μM; Y = 0.1 μM < Ki ≤ 1 μM; Z = Ki > 1 μM) | < 100 | X (X = MPC@4 ≤ 5 μg/mL) | X (X = MPC@4 ≤ 5 μg/mL) | X (X = MPC@4 ≤ 5 μg/mL) | X (X = MPC@1 ≤ 5 μg/mL) | X (X = MPC@4 ≤ 5 μg/mL)
O=C(O)c1c(-n2ccnn2)ccc2c1O[B-](O)(O)CC2 [Compound 13, Disodium; 4,4-dihydroxy-8-(triazol-1-yl)-5-oxa-4-boranuidabicyclo[4.4.0]deca-1(6),7,9-triene-7-carboxylate] | X (X = MPC@1 ≤ 5 μg/mL) | X (X = MPC@4 ≤ 5 μg/mL) | X (X = MPC@4 ≤ 5 μg/mL) | X (X = MPC@4 ≤ 5 μg/mL) | X (X = MPC@1 ≤ 5 μg/mL) | X (X = MPC@1 ≤ 5 μg/mL) | X (X = MPC@4 ≤ 5 μg/mL) | X (X = Ki ≤ 0.1 μM) | X (X = Ki ≤ 0.1 μM) | X (X = Ki ≤ 0.1 μM) | < 100 | X (key: X = Ki ≤ 0.1 μM; Y = 0.1 μM < Ki ≤ 1 μM; Z = Ki > 1 μM) | < 100 | X (X = MPC@4 ≤ 5 μg/mL) | X (X = MPC@4 ≤ 5 μg/mL) | X (X = MPC@4 ≤ 5 μg/mL) | X (X = MPC@1 ≤ 5 μg/mL) | X (X = MPC@4 ≤ 5 μg/mL)
O=C([O-])c1c(OCCF)ccc2c1O[B-](O)(O)CC2.[Na+].[Na+] [Compound 43, Disodium; 8-(2-fluoroethoxy)-4,4-dihydroxy-5-oxa-4-boranuidabicyclo[4.4.0]deca-1(6),7,9-triene-7-carboxylate] | X (X = MPC@1 ≤ 5 μg/mL) | X (X = MPC@4 ≤ 5 μg/mL) | X (X = MPC@4 ≤ 5 μg/mL) | X (X = MPC@4 ≤ 5 μg/mL) | X (X = MPC@1 ≤ 5 μg/mL) | X (X = MPC@1 ≤ 5 μg/mL) | X (X = MPC@4 ≤ 5 μg/mL) | X (X = Ki ≤ 0.1 μM) | X (X = Ki ≤ 0.1 μM) | X (X = Ki ≤ 0.1 μM) | < 100 | X (key: X = Ki ≤ 0.1 μM; Y = 0.1 μM < Ki ≤ 1 μM; Z = Ki > 1 μM) | < 100 | X (X = MPC@4 ≤ 5 μg/mL) | X (X = MPC@4 ≤ 5 μg/mL) | X (X = MPC@4 ≤ 5 μg/mL) | X (X = MPC@1 ≤ 5 μg/mL) | X (X = MPC@4 ≤ 5 μg/mL)
